{"source": "patent US20250041204A1", "about": "“COMPOSITION COMPRISING LACTOBACILLUS CRISPATUS BACTERIAL LYSATES AND/OR BACTERIA FOR IMPROVING SKIN CONDITION” (BIOTIX PTE LTD, priority 2021, published 2025)", "key": {"[1]": {"test_system": "primary adult keratinocytes (NHEK)", "test": "In vitro irritation model (SDS, MTT survival)", "format": "cell-based", "conditions": "for protection of keratinocytes from SDS induced cell damage: in vitro irritant test, comparison of active principles", "procedure": "Next, the functional effects of L. Crispatus in keratinocytes was investigated using an in vitro irritation model using primary adult keratinocytes (NHEK).\nPrimary keratinocytes from passage 2 to 3 were cultured in 96 well plates at a seed concentration of 7,000 cells/well and cultured in complete keratinocyte medium. […] After 2 hours pre incubation, cells were treated with SDS. 2 hours later MTT was added to the culture and incubated for further 2 hours for a total incubation time of 6 hours. After incubation, the MTT assay was developed according to manufacturing instruction and O.D was measured in a 96 well plate reader to determine the survival rate of the keratinocytes."}, "[2]": {"test_system": "skin of healthy volunteers", "test": "Skin irritant test in healthy volunteers (occlusive plaster on forearm)", "format": "in vivo, human", "conditions": "SDS 4% in PBS alone, 24 hours occlusion", "procedure": "The same amount of each solution was applied to a plaster with a dimension of 1 cm^2. The plasters containing the solutions were then applied on the forearm of healthy donors in occlusion to increase penetration of the solution into the skin. 24 hours after application, the plasters were removed, pictures were recorded and irritation was evaluated by blinded dermatologists."}}, "data": [{"compound": "CC(C)(CO)[C@@H](O)C(=O)NCCCO", "note": "[Panthenol]", "values": [{"measurement": "protection of keratinocytes from SDS induced cell damage", "setting": "[1]", "result": "not any other active principle protected"}]}, {"compound": "CCCCCCCCCCCCOS(=O)(=O)[O-].[Na+]", "note": "[SDS]", "values": [{"measurement": "survival rate", "setting": "[1]; SDS alone, 6 to 8 hours incubation, MTT", "result": 0, "unit": "%"}, {"measurement": "skin inflammation (erythema and immune cell infiltration)", "setting": "[2]", "result": "induced skin inflammation in all the individuals"}]}, {"compound": "Ceramides", "values": [{"measurement": "protection of keratinocytes from SDS induced cell damage", "setting": "[1]", "result": "not any other active principle protected"}]}]}
